Patent US8039670B2, “Analogs of alpha galactosyceramide and uses thereof” (Ludwig Institute for Cancer Research, priority 2005, dated 2011)
pKd: −log10 of the molar value.

Key:
[1] = system: antigen-specific CD8^+ T cells; experiment: OVA-specific CD8+ T cells after co-injection with OVA ([…]-Kb tetramer); assay type: in vivo, C57BL/6 mice; settings: 1 μg with 800 μg OVA, 6 days
Experimental: (A) C57BL/6 mice were co-injected with 1 μg α-GalCer or analog and 800 μg OVA. 6 days later blood samples taken from the tail vein were stained directly ex vivo with fluorescent […]-K^b tetramers and an anti-CD8 antibody and analyzed by flow cytometry. Data are shown as tetramer positive cells as a percentage of CD8^+ cells. (B) 7 days after injection, the mice were challenged in a prophylactic setting with 1×10^6 E.G7-OVA tumour cells s.c. and the size of the tumour monitored over subsequent days.
Previously we, and others have shown that co-injection of model antigens such as OVA (Silk, Hermans et al, J Clin Invest, 2004, 114; 1800-11, Fujii, Shimizu et al, J Exp Med, 2003, 198; 267-79, Hermans, Silk et al, J Immunol, 2003, 171; 5140-7) and β-galactosidase (Silk, Hermans et al, J Clin Invest, 2004, 114; 1800-11) together with α-GalCer induces enhanced CD8^+, CD4^+ T cell and B cell responses. These were effective for therapy against tumour cells expressing the target antigen. The various analogs were co-injected with OVA into wild type mice and 6 days later the blood examined for the presence of antigen-specific CD8^+ T cells using fluorescent K^b-[…] tetramers.

[2] = target: T1, human invariant Vα24^+/Vβ11^+ TCR binding to hCD1d-lipid complex (Homo sapiens, UniProt P15813); experiment: Surface plasmon resonance (Biacore) of soluble iNKT TCR binding to hCD1d monomers loaded with analogs; settings: for pKd: equilibrium binding, read-out: Kd of the TCR binding to the monomer
T1 construct: soluble human CD1d molecules; made in house
Experimental: Affinity and kinetics of iNKT TCR binding to hCD1d complexed with α-GalCer or OCH. Increasing concentrations from 0.4 μM to 194 μM (two-fold dilution) of iNKT TCR were injected for 5 seconds over the indicated hCD1d-GSL complexes. The binding responses of 5 concentrations are shown superimposed. The panels on the right show binding response at equilibrium.
The affinities of a soluble NKT cell TCR for human CD1d molecules refolded with different analogs of α-GalCer were measured. Equilibrium binding and kinetic measurements respectively were made for α-GalCer (A and B), threitolceramide (C and D), 4S-threitolceramide (E and F), 4R-threitolceramide (G and H). The Kd values (μM) were calculated from equilibrium binding. The Kon values shown were calculated from Koff and Kd.
We then assessed whether the length of the acyl and sphingosine chains could affect the affinity of iNKT TCR binding to glycolipid-CD1d complex. We refolded Vα24 and Vβ11 chains of the iNKT TCR as previously described (Gadola, Koch et al, J Exp Med, 2006, 203; 699-710) and used the purified and refolded iNKT TCR in surface plasmon resonance studies against immobilized biotinylated CD1d monomers loaded with either α-GalCer or OCH.
To characterize the affinity of analogs of α-GalCer, biotinylated hCD1d monomers were generated using previously described protocols (Karadimitris, Gadola et al, Proc Natl Acad Sci USA, 2001, 98; 3294-8) bound to the different analogs. Surface plasmon resonance (Biacore) analysis was performed using a soluble disulphide-linked human invariant Vα24^+/Vβ11^+ TCR (Gadola, Koch et al, J Exp Med, 2006, 203; 699-710) to measure the equilibrium dissociation constants (Kd) of binding of the TCR to different monomers (FIG. 3).

[3] = system: Melan A-specific CD8^+ T cells; experiment: Expansion of Melan-A26-35 specific CD8+ T cells in human PBMC/PBL cultures (tetramer); assay type: cell-based; settings: for stimulation of antigen specific CTL responses in vitro: Example B, day 10, compared with αGal-Cer; for expansion of Melan-A26-35 specific T cells: human PBMC/PBL, FIG. 8
Experimental: Flow cytometry of day 10-15 cultures of PBMCs co-cultured with autologous irradiated APCs, pulsed with Melan-A26-35 peptide were stained with the tetrameter and anti-CD8^+-FITC.
In these experiments, T cell expansion was measured, by pulsing human DCs from PBLs with 100 nM of the known, immunogenic peptide MelanA26-35, […]. The peptide was added to the DCs together with syngeneic PBLs from the same donor. To detail these experiments more fully, samples of DCs were irradiated with 3000 rads followed by a 3 hour pulse with the peptide, in serum free medium.
The cells were then washed thoroughly and incubated with autologous, PBLs, at a 1:10 ratio, in RPMI 1640/5% human serum. Recombinant human IL-2 was added at 10 U/ml from day 4 to day 7. At day 10, following the addition of the PBLs, cells were analyzed. Cultured cells were stained with anti-CD8 and A2/MelanA25-35 tetramer. The percentage of MelanA specific CD8 T cells out of total CD8 positive cells was measured by FACS analysis.

[4] = system: human monocyte derived DCs; experiment: Example A: DC maturation markers in human monocyte derived DC with NKT cells (FACS); assay type: cell-based; settings: 100 ng/ml, 36 hours, 10 DC/NKT cell
Experimental: The methodology of Salio, et al., J. Immunol., 167:1188-1197 (2001), incorporated by reference, was followed. In brief, 2×105 human monocyte derived DCs were pulsed with 100 ng/ml of one of Compounds 2, 3, αGal-Cer, or vehicle solution, as a control. For DC pulsing, each of arabinitol ceramide (Compound 1), threitol ceramide (Compound 3), glycerol ceramide (Compound 2) and αGal-Cer was solubilized in vehicle solution (0.5% Tween 20/PBS), and added to the medium of the DC cultures. […] After 36 hours, supernatant was removed from cultures and analyzed for the presence of known DC maturation markers CD83, CD80, CD86, CD25, and CD38, all of which were analyzed via FACS, using well known methods.

Row | koff ([2]; kinetic measurement, read-out: rate of dissociation (Koff) between the TCR and the monomer) [s⁻¹] | SMILES | antigen-specific CD8+ T cell response [1] | pKd [2] | rate of dissociation (Koff) between the TCR and the monomer ([2]; kinetic measurement) [s⁻¹] | stimulation of antigen specific CTL responses in vitro [3] | expansion of Melan-A26-35 specific T cells ([3]; listed as threitol-ceramide) | expansion of Melan-A26-35 specific T cells ([3]; listed as threitolceramide) | induction of DC maturation markers (CD83, CD80, CD86, CD25, CD38) [4]
1 |  | CCCCCCCCCCCCCCCCCCCCCCCCCC(=O)N[C@@H](COC[C@H](O)[C@@H](O)CO)[C@H](O)[C@H](O)CCCCCCCCCCCCCC [Compound 3, Threitol Ceramide] | induced a significant CD8^+ T cell response after 6 days, although less potently than α-GalCer | 5.24 | 1.04 | more potent stimulators of antigen specific CTL responses, in vitro, than αGal-Cer | superior than glycerol-ceramide | at least as effective as with DC pulsed with α-GalCer | DC maturation markers are induced
2 |  | CCCCCCCCCCCCCCCCCCCCCCCCCC(=O)N[C@@H](COC[C@@H](O)CO)[C@H](O)[C@H](O)CCCCCCCCCCCCCC [Compound 2, Glycerol Ceramide] | did not |  |  | more potent stimulators of antigen specific CTL responses, in vitro, than αGal-Cer |  |  | DC maturation markers are induced
3 | 0.37 | CCCCCCCCCCCCCCCCCCCCCCCCCC(=O)N[C@@H](CO[C@H]1OC(CO)[C@H](O)C(O)C1O)[C@H](O)[C@H](O)CCCCCCCCCCCCCC (stereo partly drawn) [α-GalCer, α galactosylceramide, reference compound] |  | 5.89 |  |  |  |  | 
